Results published in US9233947B2, “Sulfamides as TRPM8 modulators” (Janssen Pharmaceutica, NV, priority 2008, dated 2016).

Experiments:
canine TRPM8 = canine TRPM8 (Canis lupus familiaris, UniProt Q1A7N1); experiment: In Vitro Canine TRPM8 Functional Assay (intracellular Ca2+ fluorescence, icilin activation); format: cell-based; conditions: HEK293 cells stably expressing canine TRPM8; for % Inh @ 0.2 (μM) / inhibition at 0.2 µM: 0.2 μM compound, icilin challenge; for IC50: icilin challenge at ~80% maximal response, eight-point dose-response, single determinations, read-out: IC50 (μM) @ 0.2
Procedure: The functional activity of compounds of the formula (I) was determined by measuring changes in intracellular calcium concentration using a Ca^2+-sensitive fluorescent dye. The changes in fluorescent signal were monitored by a fluorescence plate reader, either a FLIPR™ (Molecular Devices) or FDSS (Hamamatsu).
At 24 hrs prior to assay, HEK293 cells stably expressing canine TRPM8 were seeded in culture medium in black wall, clear-base poly-D-lysine coated 384-well plates (BD Biosciences, NJ, USA) and grown overnight in 5% CO2 at 37° C. On assay day, growth media was removed and cells were loaded with Calcium 3 Dye (Molecular Devices) for 35 min at 37° C., under 5% CO2 and then for 25 min at room temperature and atmosphere. Subsequently, cells were tested for agonist-induced increases in intracellular Ca^2+ levels using FLIPR™ or FDSS. Cells were challenged with a compound of the Formula (I) (at varying concentrations) and intracellular Ca^2+ was measured for 5 min prior to the addition of icilin to all wells to achieve a final concentration that produces approximately an 80% maximal response. EC50 or IC50 values for compounds of the present invention were determined from eight-point dose-response studies. Curves were generated using the average of quadruplicate wells for each data point.

[1] = tested on: icilin-induced "wet-dog" shakes; experiment: Reversal of icilin-induced "wet-dog" shaking behavior in rats; format: in vivo; conditions: 10 mg/kg p.o., 1 h post-icilin, relative to WDS count prior to test compound dose
Procedure: Male Sprague Dawley rats (220-450 g, Charles River Labs, n=6-9/treatment) may be used to evaluate the ability of selected compounds of the formula (I) to block icilin-induced “wet-dog” shakes (WDS). Compounds of the formula (I) may be administered in an appropriate vehicle, such as hydroxypropyl-β-cyclodextrin (HPβCD), methocellulose, 10% Solutol, or H2O, or the like, by the appropriate route, i.p. or p.o., 30-120 minutes before icilin. Icilin may be administered in PEG-400 or 10% solutol/H2O, at 1.0 or 3.0 mg/kg, i.p. and spontaneous “wet-dog” shakes may be counted 10-20 minutes post-icilin.
Compounds of the present invention capable of inhibiting the onset of icilin-induced “wet-dog” shaking behavior may also be assessed for their ability to reverse an existing icilin-induced “wet-dog” shaking behavior. In this paradigm, icilin-induced shaking is counted for 10 minutes followed by administration of a compound of the present invention in a suitable vehicle such as hydroxypropyl methylcellulose, hydroxypropyl-β-cyclodextrin or 10% Solutol in water. The diminution of shaking behavior is represented as a percent inhibition relative to icilin-induced shakes in the absence of test compound administration, as described by the following formula: % Inhibition=[1−(WDS count following test compound dose/WDS count prior to test compound dose)]×100.

Sequence of canine TRPM8 (Q1A7N1 1-1104): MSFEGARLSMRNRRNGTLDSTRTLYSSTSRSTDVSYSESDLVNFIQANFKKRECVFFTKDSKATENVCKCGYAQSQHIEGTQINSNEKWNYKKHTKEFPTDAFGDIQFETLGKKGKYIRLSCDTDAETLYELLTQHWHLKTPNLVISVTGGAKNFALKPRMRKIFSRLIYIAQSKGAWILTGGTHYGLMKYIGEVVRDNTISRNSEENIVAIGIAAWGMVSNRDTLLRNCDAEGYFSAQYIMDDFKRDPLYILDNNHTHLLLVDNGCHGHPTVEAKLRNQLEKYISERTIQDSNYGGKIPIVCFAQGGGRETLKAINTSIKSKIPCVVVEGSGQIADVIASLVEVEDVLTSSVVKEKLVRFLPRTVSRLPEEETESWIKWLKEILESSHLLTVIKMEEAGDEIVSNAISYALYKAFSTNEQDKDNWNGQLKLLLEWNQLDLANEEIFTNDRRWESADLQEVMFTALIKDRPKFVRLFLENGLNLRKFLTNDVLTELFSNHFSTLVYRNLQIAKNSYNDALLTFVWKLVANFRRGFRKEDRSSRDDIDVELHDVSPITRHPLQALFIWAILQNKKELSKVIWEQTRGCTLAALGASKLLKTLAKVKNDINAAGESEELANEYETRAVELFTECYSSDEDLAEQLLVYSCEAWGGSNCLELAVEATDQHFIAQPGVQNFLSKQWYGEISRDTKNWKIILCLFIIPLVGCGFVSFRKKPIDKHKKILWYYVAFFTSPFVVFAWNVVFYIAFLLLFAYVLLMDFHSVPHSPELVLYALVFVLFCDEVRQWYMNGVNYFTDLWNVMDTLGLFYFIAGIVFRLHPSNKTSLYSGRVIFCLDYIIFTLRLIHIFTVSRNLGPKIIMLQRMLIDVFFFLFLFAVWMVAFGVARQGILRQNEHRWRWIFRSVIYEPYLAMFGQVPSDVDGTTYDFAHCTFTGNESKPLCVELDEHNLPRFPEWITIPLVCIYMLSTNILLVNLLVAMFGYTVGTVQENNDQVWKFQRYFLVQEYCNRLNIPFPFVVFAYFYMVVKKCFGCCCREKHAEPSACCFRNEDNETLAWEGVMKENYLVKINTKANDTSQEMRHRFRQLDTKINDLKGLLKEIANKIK

Molecule | % Inh @ 0.2 (μM) (canine TRPM8) [%] | IC50 (canine TRPM8) [µM] | inhibition at 0.2 µM (canine TRPM8) [%] | % Inhibition [1] [%]
O=C(O)CNS(=O)(=O)N(Cc1ccc(F)c(C(F)(F)F)c1)c1sc2ccccc2c1Br [Compound 14, N-(3-Bromo-benzo[b]thiophen-2-yl)-N-(4-fluoro-3-trifluorobenzyl)-(N-acetic acid)-sulfonamide] | 33 |  |  | 
4-Isopropyl-piperazine-1-sulfonic acid (3-methyl-benzo[b]thiophen-2-yl)-(4-trifluoromethoxy-benzyl)-sulfamoyl]-amide [Compound 4] |  | 0.06 |  | 
O=C(O)CCCNS(=O)(=O)N(Cc1ccc(F)c(C(F)(F)F)c1)c1sc2ccccc2c1Br [Compound 15, N-(3-Bromo-benzo[b]thiophen-2-yl)-N-(4-fluoro-3-trifluorobenzyl)-(N-butyric acid)-sulfonamide] | 101 | 0.018 |  | 
Cc1c(N(Cc2ccc(OC(F)(F)F)cc2)S(=O)(=O)N2CCCCC2)sc2ccccc12 [Compound 1, Piperidine-1-sulfonic acid (3-methyl-benzo[b]thiophen-2-yl)-(4-trifluoromethoxy-benzyl)-amide] |  | 0.0036 | 99 | 
Cc1c(N(Cc2ccc(F)c(C(F)(F)F)c2)S(=O)(=O)NCCCC(=O)O)sc2ccccc12 [Compound 13, N-(4-Fluoro-3-trifluoromethyl-benzyl)-N-(3-methyl-benzo[b]-thiophen-2-yl)-N′-(butyric acid)-sulfonamide] | 72 | 0.062 |  | 
Cc1c(N(Cc2ccc(OC(F)(F)F)cc2)S(=O)(=O)N2CCC(C(=O)NCCN(C)C)CC2)sc2ccccc12 [Compound 12, 1-[(3-Methyl-benzo[b]thiophen-2-yl)-(4-trifluoromethoxy-benzyl)-sulfamoyl]-piperidine-4-carboxylic acid (2-dimethylamino-ethyl)-amide] |  | 0.061 | 70 | 
Cc1c(N(Cc2ccc(OC(F)(F)F)cc2)S(=O)(=O)NS(=O)(=O)N2CCN(N3CCCC3)CC2)sc2ccccc12 [Compound 9] | 9 |  |  | 
Cc1c(N(Cc2ccc(OC(F)(F)F)cc2)S(=O)(=O)N2CCC(C(=O)N3CCN(C)CC3)CC2)sc2ccccc12 [Compound 11] | 30 |  |  | 
O=C(O)CCCCNS(=O)(=O)N(Cc1ccc(F)c(C(F)(F)F)c1)c1sc2ccccc2c1Br [Compound 16] | 101 | 0.0085 |  | 
4-(3-Methyl-butyl)-piperazine-1-sulfonic acid (3-methyl-benzo[b]thiophen-2-yl)-(4-trifluoromethoxy-benzyl)-sulfamoyl]-amide [Compound 5] |  | 0.071 |  | 
Cc1c(N(Cc2ccc(OC(F)(F)F)cc2)S(=O)(=O)N2CCOCC2)sc2ccccc12 [Compound 2, Morpholine-1-sulfonic acid (3-methyl-benzo[b]thiophen-2-yl)-(4-trifluoromethoxy-benzyl)-amide] | 100 | 0.0057 |  | 
Cc1c(N(Cc2ccc(OC(F)(F)F)cc2)S(=O)(=O)NS(=O)(=O)N2CCC(N(C)C)CC2)sc2ccccc12 [Compound 8] | 36 |  |  | 
Cc1c(N(Cc2ccc(OC(F)(F)F)cc2)S(=O)(=O)NS(=O)(=O)N2CCNCC2)sc2ccccc12 [Compound 3] | 19 |  |  | 
Cc1c(N(Cc2ccc(OC(F)(F)F)cc2)S(=O)(=O)N2CCN(CC(F)(F)F)CC2)sc2ccccc12 [Compound 7] | 100 | 0.013 |  | 
4-Methyl-piperazine-1-sulfonic acid (3-methyl-benzo[b]thiophen-2-yl)-(4-trifluoromethoxy-benzyl)-sulfamoyl]-amide [Compound 6] | 90 | 0.046 |  | 
Cc1c(N(Cc2ccc(OC(F)(F)F)cc2)S(=O)(=O)N2CCC(C(=O)O)CC2)sc2ccccc12 [Compound 10, 1-[(3-Methyl-benzo[b]thiophen-2-yl)-(4-trifluoromethoxy-benzyl)-sulfamoyl]-piperidine-4-carboxylic acid] |  | 0.0046 | 101 | 57
